The source of these data is patent publication US20070031511A1, “Method of treatment” (priority 2003, published 2007).

The conditions of data set [1]: read-out: Apparent first dissociation constant of complex with ferric ions, cited from earlier work.
A short description of data set [2]: Quenching of peptide tryptophan fluorescence by ferric ions (stoichiometry, apparent Kd). The data set is classed as binding. To be noted: 10 mM sodium acetate pH 4.0, 100 mM NaCl, 0.005% Tween 20; mean ± S.E.; read-out: Kd (μM), apparent dissociation constant for ferric ions. How it is done:
The tryptophan fluorescence of peptide solutions was measured in 3 mL quartz cuvettes thermostated at […], with a Spex Fluorolog-2 spectrofluorimeter (Spex Industries, Edison, N.J.), with the excitation and emission wavelengths set at 290 and 345 nm, respectively. The quenching of tryptophan fluorescence induced by the binding of metal ions was used to calculate the fraction of binding sites occupied, fa: fa=(yf−y)/(yf−yb) where y is the fluorescence signal at a given concentration of metal ions and yb and yf are the signals when the binding sites are fully occupied and unoccupied, respectively (Winzor et al, 1995). The stoichiometry, p, and apparent dissociation constant, Kd, were then obtained, using the program Sigmastat (Jandel Scientific, San Rafael, Calif.), from the intercept and slope of a linear regression of the data transformed as described by Winzor and Sawyer (1995) in terms of the equation Cs/fa=pCa+Kd/(1−fa) where Cs is the total concentration of metal ions, and Ca is the total concentration of glycine-extended gastrin17. For the bismuth binding studies, the data was fitted by non-linear regression with the program Sigmaplot (Jandel Scientific, San Rafael, Calif.) to the equations for models with one binding site or two binding sites with identical affinities: fa=x/(Kd1+x) or to the model with two binding sites with different affinities: fa=(Kd1·x+Kd2·x+2x^2)/2(Kd1·Kd2+Kd1·x+Kd2·x+x^2) where x is the concentration of free metal ions, Kd1 is the first site dissociation constant and Kd2 is the second site dissociation constant. For the one-site model the value of x at any given total concentration of metal ions was obtained by exact solution of the appropriate quadratic (Malby et al, 2001). For the two-site models the value of x was obtained by an iterative Newton-Raphson procedure (Linse et al, 1991). Absorption Spectroscopy
The tryptophan fluorescence of progastrin6-80, glycine-extended gastrin17 and related peptides was measured in the presence of increasing concentrations of ferric ions in 10 mM sodium acetate, pH 4.0, 100 mM NaCl, 0.005% Tween 20. […] Values from the indicated number of independent experiments were combined to obtain the mean values (±S.E.) presented above. No binding of ferric ions to Ggly1-4 or Ggly12-18 was observed.
The tryptophan fluorescence of amidated gastrin17 and related peptides was measured in the presence of increasing concentrations of ferric ions at pH 4.0 (8). Values of the stoichiometry and the apparent dissociation constant (Kd) were obtained from linear transformations of the data presented in FIG. 20A by least squares fitting. Values from the indicated number of independent experiments were combined to obtain the mean values (±S.E.) presented above.

Data set [3] has as its system IMGE-5 cells. Briefly: IMGE-5 cell proliferation, MTT assay. It is filed as cell-based, mice. To be noted: MTT assay, peptides shown at 1 nM (FIGS. 7A, 8A). How it is done:
(§1) The IMGE-5 cell line was established from the gastric mucosa of mice transgenic for a temperature-sensitive mutant of the SV40 large T antigen (Hollande et al, 2001). IMGE-5 cells were generally grown at 33° C. in DMEM containing 1 unit/ml γ-interferon, 10% FBS, 100 U/ml penicillin, and 100 μg/ml streptomycin (permissive conditions). For all experiments, cells were transferred to 39° C. in the same medium without […] (non-permissive conditions), where they display differentiated characteristics such as expression of functional adherens and tight junctions. All experiments have been performed on cells between passages 20 and 35.
A colorimetric assay was used to measure cell proliferation. Briefly, IMGE-5 cells were seeded in a 96-well plate at a density of 10^4 cells/well in DMEM containing 10% FBS and antibiotics. The following day, cells were synchronized in Go by incubation for 24 h in the same medium lacking FBS. The medium was replaced the next day with fresh medium containing 1% FBS and antibiotics and the peptides under investigation, and incubation was continued for 72 h. 15 μl of 5 mg/ml 3-(4,5-dimethylthiazol-2-yl)-2-5-diphenyltetrazolium bromide (MTT, Sigma, St Louis Mo.) was added per well, and the plate was incubated at 37° C. for 4 h before the medium was discarded. 200 μl 40 mM HCl in isopropanol was added to lyse the cells, and the absorbance at 570 nm was read on a BioRad Model 550 Microplate reader (BioRad, Hercules, Calif.).

Data set [4] relates to IMGE-5 cells. Briefly: Wound healing / cell migration assay. The conditions noted are these: wound healing assay, fragments and mutants shown at 1 nM (FIGS. 7B, 8B). The data set is classed as cell-based, mice. The method, then: as §1
In order to assess the effects of different stimuli on cell migration, wound healing experiments were performed as detailed elsewhere (Hollande et al, 1997). In brief, IMGE-5 cells were grown in 12-well plates in DMEM at 33° C. until they reached 80% confluence, then shifted to 39° C. and starved of serum for 24 h. The confluent monolayer was wounded using a 20 μl-pipette tip, and cells were then washed 3 times with phosphate-buffered saline (PBS: 2.7 mM KCl, 1.5 MM KH2PO4, 142 mM NaCl, and 10 mM Na2HPO4, pH 6.95) and treated with or without different compounds in DMEM with antibiotics. Morphology and migration of cells were observed and photographed immediately, and after treatment for 17 and 24 h. Wound width was measured at six different positions on the 24 h photographs, and averages calculated.

Data set [5] is described as follows: Solubility of peptides in NMR sample preparation. It is filed as physicochemical. To be noted: NMR sample conditions, pH 5.3. How it is done:
For the subsequent experiments, samples were prepared for NMR spectroscopy by dissolving 2.5 mg of peptide in 0.6 ml of 10% DMSO/10% ^2H2O/80% H2O at 278 K. The pH was adjusted with small amounts of 1M NaO^2H or ^2HCl to pH 5.3. ^1H chemical shifts were referenced to 2,2-dimethyl-2-silapenthane-5-sulfonate at 0 ppm via the chemical shift of the H2O resonance or an impurity at 0.15 ppm. NMR spectra were recorded on Bruker DRX-600 and AMX-500 instruments, as described previously (Barnham et al, 1999).
The peptides LE5AYG, LE5A, E5AY and E5A (approximately 2 mM) were dissolved in H2O with 5 or 10% ^2H2O. […] Sequence-specific ^1H NMR resonance assignments were made from two-dimensional nuclear Overhauser enhancement spectroscopy (NOESY) and total correlation spectroscopy (TOCSY).

The target of data set [6] is T1, recombinant human progastrin6-80 (Homo sapiens, UniProt P01350).
T1 construct: made in house
T1 sequence (P01350 27-101): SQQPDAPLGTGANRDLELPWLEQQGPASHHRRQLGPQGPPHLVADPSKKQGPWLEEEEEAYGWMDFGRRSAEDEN
Briefly: Competition of metal ions with 59Fe3+ for binding to progastrin6-80. To be noted: metal ions 100 μM, 59Fe3+ 10 μM, progastrin6-80 5.6 μM. How it is done:
In order to determine the specificity of the interaction between progastrin and metal ions, the binding of metal ions to recombinant human progastrin6-80 was determined by measuring their ability to compete with radioactive ^59Fe^3+ for binding to the protein by the following methods (Baldwin et al, 2001).
Progastrin6-80 (5.6 μM) in pH 2.8 buffer (10 mM sodium formate, pH 2.8, 100 mM NaCl, 0.005% Tween 20) was incubated for 30 min at 4° C. with ^59Fe^3+ ions (10 μM, 23.6 cpm/pmol) in the presence of several di- and trivalent metal ions (100 μM). Excess radioactivity was removed by overnight dialysis (SpectraPor dialysis tubing, molecular weight cut-off 3,500, Spectrum Labs., Rancho Dominguez, Calif.) at 4° C. against pH 4.0 buffer (10 mM sodium acetate, pH 4.0, 100 mM NaCl, 0.005% Tween 20), containing 1 µM EDTA. The radioactivity associated with progastrin6-80 was determined by counting aliquots of the internal and external solutions in a γ-counter (LKB-Wallac, Turku, Finland).

A further data set relates to rectal mucosa. Briefly: Proliferation in the rectal mucosa of rectally defunctioned rats (metaphase-arrested cells). It is filed as in vivo. To be noted: infused intraperitoneally 2.5 nmol/kg/hr, 4 weeks. How it is done: DFO (400 mg/kg) was administered intraperitoneally thrice weekly, and bismuth ions were administered as colloidal bismuth subcitrate (135 mg/kg/12 hours) by oral gavage 5 days per week. After 4 weeks, the rats were injected with vincristine to arrest cycling cells in metaphase, and sacrificed 3 hrs later. Crypt heights in the rectal mucosa, and the number of metaphase arrested cells per crypt, were then determined microscopically.

For data set [7] the following is noted: pH 4.0; Ref. 8 given in table; read-out: Kd (μM), apparent dissociation constant for ferric ions; cited from earlier work.

Where two headings read alike, the source gives them in different places. Where a SMILES comes first, the peptide text is derived from it. Where no end group is shown, it is not given here. [ ]: non-standard residue; d: D form. pGlu = O=C1CC[C@@H](C(=O)O)N1

As to `O=C(O)CN(CC(=O)O)CC(=O)O` [nitrilotriacetic acid], the Kd is 830 nM in data set [1] (pH 4.0) and 0.19 nM in data set [1] (pH 7.6).

As for `CSCC[C@H](NC(=O)[C@H](Cc1c[nH]c2ccccc12)NC(=O)CNC(=O)[C@H](Cc1ccc(O)cc1)NC(=O)[C@H](C)NC(=O)[C@H](C)NC(=O)[C@H](C)NC(=O)[C@H](C)NC(=O)[C@H](C)NC(=O)[C@H](C)NC(=O)[C@H](CC(C)C)NC(=O)[C@H](Cc1c[nH]c2ccccc12)NC(=O)[C@@H]1CCCN1C(=O)CNC(=O)[C@@H]1CCC(=O)N1)C(=O)N[C@@H](CC(=O)O)C(=O)N[C@@H](Cc1ccccc1)C(=O)NCC(=O)O` [GglyE6-10A] ([pGlu]GPWLAAAAAAYGWMDFG-OH), the Kd in data set [2] turned out to be 1.2 ± 0.11 µM. Further, the “Stimulation of IMGE-5 cell proliferation” value with IMGE-5 cells [3] is “inactive”. Also, the “Stimulation of IMGE-5 cell migration” value in the data set on IMGE-5 cells [4] was “inactive”. Further, the Solubility entry in data set [5] is given as “Poor solubility”.

For `[Fe+3]` [ferric ions], the “Ability to compete with 59Fe3+ for binding to progastrin6-80” value in data set [6] is on record as “able to compete effectively”.

In the case of “GglyE7A: Ggly mutant, Glu7 replaced by Ala, SEQ ID NO:11 ([pGlu]GPWLEAEEEAYGWMDFG; ends and bridges not checked)”, the Kd in data set [2] turned out to be 0.2 ± 0.01 µM. Further, the “Stimulation of IMGE-5 cell proliferation” value with IMGE-5 cells [3] was “inactive”. Besides, in the data set on IMGE-5 cells [4], the “Stimulation of IMGE-5 cell migration” value is “inactive”. Besides, the “Stimulation of rectal mucosal proliferation” value in the data set with rectal mucosa is reported as “able to stimulate mucosal proliferation as well as Ggly”.

Regarding `[Fe+2]` [ferrous ions], the “Ability to compete with 59Fe3+ for binding to progastrin6-80” value in data set [6] is given as “able to compete effectively”.

Regarding `CSCC[C@H](NC(=O)[C@H](Cc1c[nH]c2ccccc12)NC(=O)CNC(=O)[C@H](Cc1ccc(O)cc1)NC(=O)[C@H](C)NC(=O)[C@H](C)NC(=O)[C@H](C)NC(=O)[C@H](C)NC(=O)[C@H](CCC(=O)O)NC(=O)[C@H](CCC(=O)O)NC(=O)[C@H](CC(C)C)NC(=O)[C@H](Cc1c[nH]c2ccccc12)NC(=O)[C@@H]1CCCN1C(=O)CNC(=O)[C@@H]1CCC(=O)N1)C(=O)N[C@@H](CC(=O)O)C(=O)N[C@@H](Cc1ccccc1)C(=O)NCC(=O)O` [GglyE8-10A] ([pGlu]GPWLEEAAAAYGWMDFG-OH), the Kd in data set [2] was found to be 0.37 ± 0.07 µM. In the data set on IMGE-5 cells [3], the “Stimulation of IMGE-5 cell proliferation” value was “active in proliferation assays, although less so than Ggly”. The Solubility result in data set [5] is “Poor solubility”.

Turning to “LE5AYGWMDFG (LEEEEEAYGWMDFG; listed as Homo sapiens) [Ggly5-18]”, the “Stimulation of IMGE-5 cell proliferation” value is on record as “to the same extent as Ggly” in the data set on IMGE-5 cells [3] and “fully active” with IMGE-5 cells [3] (listed as LE5AYGWMDFG). For the same molecule, the “Stimulation of IMGE-5 cell migration” value in the data set on IMGE-5 cells [4] is on record as “to the same extent as Ggly”; in the data set on IMGE-5 cells [4] (listed as LE5AYGWMDFG), “fully active”. Also, the Kd in data set [7] was 0.58 ± 0.19 µM.
